Marks after values point to notes of the source that are not given here.
test: Measurement of LogP values by HPLC on reversed phase columns (EEC directive 79/831 Annex V.A8); format: physicochemical; conditions: not given
Summary of the method: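 Following EEC directive 79/831 Annex V.A8, lipophilicity was derived from retention on reversed-phase HPLC columns. Separate values are given per diastereoisomer, and UV lambda-max (200–400 nm) was read at the peak signals.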

LogP | LogP [a] | LogP [b] | SMILES
4.61[a] | – | – | COc1ccc(CNc2nsc(C(=O)NC(C)c3ccc(Cl)cc3Cl)c2Cl)cc1 (stereo not shown) [I-1256]
– | 4.37^[a] | – | COc1ccc(CNc2nsc(C(=O)N3CCCc4cc(Cl)ccc43)c2Cl)cc1 [II-066]
2.00[a] | – | – | Cc1c(N)nsc1C(=O)NCc1ccc(Cl)cc1F [I-159]
– | 1.93^[a] | – | CCOC(=O)c1snc(N)c1Br [E-VII-060]
3.20[c] | – | – | CCCCC(=O)Nc1nsc(C(=O)NCC2CCCCC2)c1Cl [I-450]
2.26[a] | – | – | COc1ccc(CNc2nsc(C(=O)NCc3cnccn3)c2Cl)cc1 [I-1231]
3.46[a] | – | – | COc1ccc(CNC(=O)c2snc(NCc3ccc(OC)cc3)c2Cl)cc1 [I-102]
5.36[a] | – | – | COc1ccc(CNc2nsc(C(=O)N(C3CC3)C(C)c3cc(Cl)cc(Cl)c3)c2Cl)cc1 (stereo not shown) [I-928]
2.39[a] | – | – | Nc1nsc(C(=O)Nc2cccc3ccccc23)c1Cl [I-927]
– | 5.48^[a] | – | COc1ccc(CN(Cc2ccc(C)cc2)c2nscc2Cl)cc1 [Z-A-008]
4.69[a] | – | – | COc1ccc(CNc2nsc(C(=O)NC3(C4CCCCC4)CC3)c2Cl)cc1 [I-113]
– | 2.87^[a] | – | O=C(NCC1CCCCO1)c1snc(Cl)c1Cl (stereo not shown) [E-II-010]
3.94[a] | – | – | CC(C)(C)c1ccc2c(c1)CC(NC(=O)c1snc(N)c1Cl)CC2 (stereo not shown) [I-1534]
3.19[a] | – | – | CC(c1cc(Cl)cc(Cl)c1)N(C(=O)c1cc(N)ns1)C1CC1 (stereo not shown) [I-979]
– | 5.65^[a] | – | Cc1ccc(C(C)(C)C)c(CN(C(=O)c2snc(Cl)c2Cl)C2CC2)c1 [E-II-015]
2.08[a] | – | – | Cc1ccccc1NC(=O)c1snc(N)c1Cl [I-914]
5.51[a] | – | – | COc1ccc(CNc2nsc(C(=O)NC3CCC(C(C)(C)C)CC3)c2Cl)cc1 (stereo not shown) [I-1252]
– | 0.66^[a] | – | CN1C2CCC1CC(NC(=O)c1snc(Cl)c1Cl)C2 (stereo not shown) [E-II-018]
2.17[a] | – | – | Nc1nsc(C(=O)NCC2(F)CCCCC2)c1Cl [I-615]
3.85[a] | – | – | COc1ccc(CNc2nsc(C(=O)NCc3ccc(OC)c(C(F)(F)F)c3)c2Cl)cc1 [I-1321]
3.94[a] | – | – | COc1ccc(CNc2nsc(C(=O)NCc3ccc(C4CC4)cc3)c2C2CC2)cc1 [I-600]
5.81[a] | – | – | CCC(c1cc(Cl)cc(Cl)c1)N(C(=O)c1snc(NCc2ccc(OC)cc2)c1Cl)C1CC1 (stereo not shown) [I-936]
2.73[a] | – | – | Nc1nsc(C(=O)N(Cc2c(F)cccc2Cl)C2CC2)c1Cl [I-210]
4.39[a] | – | – | COc1ccc(CNc2nsc(C(=O)N[C@@H]3CCCC[C@H]3C)c2Cl)cc1 (relative stereo) [I-1551]
2.02[a] | – | – | Nc1nsc(C(=O)NC2(c3ccc(F)cc3)CC2)c1Cl [I-023]
– | 1.38^[a] | – | CS(C)=Nc1nsc(C(=O)NCc2ccc(F)cc2F)c1Cl [II-041]
1.93[a] | – | – | Nc1nsc(C(=O)NCc2ccc(F)c(F)c2)c1Cl [I-125]

LogP | LogP [a] | LogP [b] | SMILES
4.46[a] | – | – | COc1ccc(CNc2nsc(C(=O)NC3CCCC(C)C3C)c2Cl)cc1 (stereo not shown) [I-1210]
2.84[a] | – | – | COC(=O)Nc1nsc(C(=O)N[C@@H](C)C2CCCCC2)c1Cl [I-108]
2.15[a] | – | – | Nc1nsc(C(=O)NCC2(F)CCCCC2)c1Br [I-828]
4.74[a] | – | – | C[C@H](NC(=O)c1snc(NCc2ccccc2)c1Cl)C1CCCCC1 [I-040]
2.28[a] | – | – | Nc1cc(C(=O)N(Cc2c(F)cccc2Cl)C2CC2)sn1 [I-909]
3.05[a] | – | – | CC1(C)CCCCC1CNC(=O)c1snc(N)c1Cl (stereo not shown) [I-080]
– | 3.60^[a] | – | O=C(NCC1CCOCC1)c1snc(N=C(c2ccccc2)c2ccccc2)c1Cl [II-006]
– | 1.53^[a] | – | CS(C)=Nc1nsc(C(=O)NCC2CCCCC2)c1F [II-053]
1.64[a] | – | – | Cc1c(N)nsc1C(=O)NCc1cc(F)c(F)cc1F [I-588]
5.45[a] | – | – | COc1ccc(CNc2nsc(C(=O)N(Cc3ccc(Cl)cc3Cl)CC3CC3)c2Cl)cc1 [I-935]
3.61[a] | – | – | COc1ccc(CNc2nsc(C(=O)NCc3cscc3C)c2Cl)cc1 [I-1201]
3.76[a] | – | – | COc1ccc(CNc2nsc(C(=O)NCc3ccc(Cl)c(OC)c3)c2Cl)cc1 [I-390]
4.84[a] | – | – | COc1ccc(CNc2nsc(C(=O)NCC3(C)CCC(C)CC3)c2Cl)cc1 (stereo not shown) [I-825]
3.55[a] | – | – | COc1ccc(CNc2nsc(C(=O)NCCc3cccs3)c2Cl)cc1 [I-1269]
– | 3.83^[a] | – | O=C(O)c1snc(N(Cc2ccccc2)Cc2ccccc2)c1Br [E-VIII-004]
3.68[a] | – | – | COc1ccc(CNc2nsc(C(=O)NCc3ccc(OC)c(Cl)c3)c2Cl)cc1 [I-1240]
3.85[a] | – | – | C[C@H](NC(=S)c1snc(N)c1Cl)C1CCCCC1 [I-418]
– | 1.64^[a] | – | O=C(NCc1ccc(F)cc1F)c1snc(N=S2CCCC2)c1Cl [II-042]
4.03[a] | – | – | COc1ccc(CNc2nsc(C(=O)NCc3ccc(Cl)cc3F)c2Cl)cc1 [I-225]
5.72[a] | – | – | O=C(NCc1ccc(Cl)cc1)c1snc(N(Cc2ccccc2)Cc2ccccc2)c1-c1ccc(F)cc1 [I-321]
1.79[a] | – | – | Nc1nsc(C(=O)NCc2ccccc2F)c1Br [I-832]
2.11[a] | – | – | Nc1nsc(C(=O)NC2CCCCC2)c1Br [I-841]
2.82[a] | – | – | CCC(=O)Nc1nsc(C(=O)NC(C)C2CCCCC2)c1Cl (stereo not shown) [I-601]
2.63[a] | – | – | Nc1nsc(C(=O)NCC2CCCCC2C(F)(F)F)c1Cl (stereo not shown) [I-1566]
5.97[a] | – | – | O=C(NCCc1ncc(C(F)(F)F)cc1Cl)c1snc(N(Cc2ccccc2)Cc2ccccc2)c1Br [I-950]
4.85[a] | – | – | CCC(c1ccccc1)N(C(=O)c1snc(NCc2ccc(OC)cc2)c1Cl)C1CC1 (stereo not shown) [I-875]
2.42[a] | – | – | O=C(O)CCNc1nsc(C(=O)NCC2CCCCC2)c1Cl [I-721]

The next lines start with the molecule.

SMILES | LogP | LogP [a] | LogP [b]
O=C(NCC1CCC(C(=O)NC2CC2)CC1)c1snc(Cl)c1Cl (stereo not shown) [E-II-016] | – | 2.21^[a] | –
COc1ccc(CNc2nsc(C(=O)N(Cc3ccc(Cl)cc3Cl)C3CC3(C)C)c2Cl)cc1 (stereo not shown) [I-945] | 5.87[a] | – | –
Nc1nsc(C(=O)NCc2cc(F)cc(F)c2)c1Cl [I-024] | 2.11[a] | – | –
Nc1nsc(C(=O)NCc2ccnc(F)c2)c1Cl [I-038] | 1.04[a] | – | –
Nc1nsc(C(=O)NCc2ccc(Br)cc2)c1Cl [I-372] | 2.39[a] | – | –
CCC(C)CNC(=O)c1snc(N)c1Cl (stereo not shown) [I-1014] | 1.98[a] | – | –
COc1ccc(CNc2nsc(C(=O)NCc3ccn(C)n3)c2Cl)cc1 [I-1238] | 2.39[a] | – | –
Nc1nsc(C(=O)NCC2CC2)c1Cl [I-337] | 1.30[a] | – | –
C#Cc1c(N)nsc1C(=O)NCC1CCCCC1F (stereo not shown) [I-1359] | 2.05[a] | – | –
COc1ccc(CNc2nsc(C(=O)NCc3cc(C)ccc3C3(C)CC3)c2Cl)cc1 [I-391] | 4.92[a] | – | –
Nc1nsc(C(=O)NCC2CCCCC2)c1Br [I-539] | 2.51[a] | – | –
COc1ccc(CNc2nsc(C(=O)NC(C)(C)c3ccon3)c2Cl)cc1 [I-1329] | 3.04[a] | – | –
O=C(NCC1CCCCC1)c1snc(N=S(c2ccccc2)c2ccccc2)c1Cl [II-092] | – | 4.77^[a] | –
Nc1nsc(C(=O)NCc2cccc(Cl)c2Cl)c1Cl [I-019] | 2.49[a] | – | –
CCC(NC(=O)c1snc(NCc2ccc(OC)cc2)c1Cl)c1cn(CC)nc1C (stereo not shown) [I-1202] | 3.02[a] | – | –
CC1CCC(C(C)C)C(NC(=O)c2snc(Cl)c2Cl)C1 (stereo not shown) [E-II-024] | – | 5.72 | 5.64
COc1c(N)nsc1C(=O)NCc1ccc(Cl)cc1 [I-737] | 1.98[a] | – | –
Nc1nsc(C(=O)NCC2CCCCC2)c1C1CC1 [I-359] | 2.37[a] | – | –
COc1ccc(CNc2nsc(C(=O)NCc3cccc(OC)n3)c2Cl)cc1 [I-1319] | 3.41[a] | – | –

SMILES | LogP | LogP [a] | LogP [b]
Nc1nsc(C(=O)NCc2ccc(C(F)F)cc2)c1Cl [I-133] | 1.91[a] | – | –
COc1ccc(CNc2nsc(C(=O)N(C3CC3)C(C)c3cccc(C(F)(F)F)c3)c2Cl)cc1 (stereo not shown) [I-948] | 4.91[a] | – | –
CCc1ccccc1C(C)N(C(=O)c1snc(N)c1Cl)C1CC1 (stereo not shown) [I-887] | 3.37[a] | – | –
CCC1(C)CC(NC(=O)c2snc(NCc3ccc(OC)cc3)c2Cl)CC(C)(C)C1 (stereo not shown) [I-1254] | 5.72[a] | – | –
Cc1ccc(S(C)=Nc2nsc(C(=O)NCc3ccc(F)cc3F)c2F)cc1 (stereo not shown) [II-058] | – | 2.74^[a] | –
CCn1ncc(CNC(=O)c2snc(NCc3ccc(OC)cc3)c2Cl)c1C [I-1237] | 2.59[a] | – | –
Nc1nsc(C(=O)N(Cc2c(Cl)cccc2Cl)C2CC2)c1Cl [I-208] | 3.02[a] | – | –
COc1ccc(CNc2nsc(C(=O)N(Cc3ccc(Cl)cc3Cl)C3CCC3)c2Cl)cc1 [I-934] | 5.56[a] | – | –
CCCC(=O)Nc1nsc(C(=O)NCC2CCCCC2)c1Cl [I-170] | 2.84[a] | – | –
CON(Cc1ccc(F)cc1F)C(=O)c1snc(N)c1Cl [I-542] | 2.50[a] | – | –
CS(C)(=O)=Nc1nsc(C(=O)NCC2CCCCC2)c1Cl [II-049] | – | 2.47^[a] | –
COc1ccc(CNc2nsc(C(=O)NCc3nc(C)cs3)c2Cl)cc1 [I-1203] | 2.80[a] | – | –
COc1ccc(CNc2nsc(C(=O)NCc3ccc(Cl)c(C(F)(F)F)c3)c2Cl)cc1 [I-1249] | 4.34[a] | – | –
COc1ccc(CNc2nsc(C(=O)N3CCCc4cccc(C)c43)c2Cl)cc1 [II-067] | – | 4.24 | 4.14
C=CCNc1nsc(C(=O)N[C@@H](C)C2CCCCC2)c1Cl [I-066] | 4.02[a] | – | –
COc1ccc(CNc2nsc(C(=O)N[C@@H](C)C3CCCCC3)c2Cl)cc1 [I-065] | 4.66[a] | – | –
COc1ccc(CNc2nsc(C(=O)NCc3cnc(Cl)cn3)c2Cl)cc1 [I-1309] | 2.98[a] | – | –
O=C(NC1CCc2ccccc21)c1snc(Cl)c1Cl (stereo not shown) [E-II-020] | – | 3.70 | 3.63
CC(Cc1ccccc1Cl)NC(=O)c1snc(N)c1Cl (stereo not shown) [II-011] | – | 2.64^[a] | –

same assay, conditions: HPLC LC-UV, acidic range, 0.1% formic acid in water and acetonitrile as eluent

SMILES | chromatographic logP
Nc1nsc(C(=O)O)c1Cl [E-VIII-012, 3-amino-4-chloroisothiazole-5-carboxylic acid] | -0.13
CCOC(=O)c1snc(N(Cc2ccccc2)Cc2ccccc2)c1C1CC1 [E-VII-024, ethyl 4-cyclopropyl-3-(dibenzylamino)isothiazole-5-carboxylate] | 5.91

— US20190110476A1, “NOVEL ISOTHIAZOLAMIDES, PROCESSES FOR THEIR PREPARATION AND THEIR USE AS FUNGICIDES” (priority 2014, published 2019)
